In patent publication US7641927B2, “Chewing gum and confectionery compositions containing a stain removing complex, and methods of making and using the same” (Cadbury Adams USA, LLC, priority 2006, dated 2010):

Experiment: Stain removal study on stained hydroxyapatite (HAP) disks, CIELAB ΔE
Details: test solution in artificial human saliva, one hour treatment, 15 ml/min, 37° C.; FIG. 2
Method: A flow system was assembled for staining samples of hydroxyapatite (HAP) disks using a staining solution. The staining solution was prepared from a mixture containing tea, coffee and porcine gastric mucin. The staining solution was circulated through the flow system at a rate of about 15 ml/min, and passed continuously over the HAP disks for about 96 hours at about 37° C. After 96 hours, the stained HAP disks were then placed in artificial human saliva (as prepared in Example 5) at a pH of about 7, and were then rinsed and allowed to dry. The HAP disks were segregated into 6 sample groups. Each of the HAP disks were measured to yield a baseline L*a*b stain score in accordance with the Commission International de L'Eclairage Laboratory (CIELAB) color scale. The CIELAB scale quantifies color according to 3 parameters, L* (lightness-darkness scale), a* (red-green chroma), and b* (yellow-blue chroma). In order to obtain reproducible readings, the stained HAP disks were allowed to air-dry at room temperature for about 2 hours before measurement is to be made. The baseline stain measurements were taken by making diffuse reflectance absorbance readings with a Minolta spectrophotometer. The absorbance readings over the entire visible color spectrum were obtained for each HAP disk. […] The overall change in stain level ΔE was determined for each of the treated HAP disks.

## CCCCCCCCCCCCCCCCCC(=O)[O-].[Na+] [sodium stearate]
  stain removing activity (ΔE): least stain removing activity

## OC[C@H]1O[C@@H]2O[C@H]3[C@H](O)[C@@H](O)[C@@H](O[C@H]4[C@H](O)[C@@H](O)[C@@H](O[C@H]5[C@H](O)[C@@H](O)[C@@H](O[C@H]6[C@H](O)[C@@H](O)[C@@H](O[C@H]7[C@H](O)[C@@H](O)[C@@H](O[C@H]8[C@H](O)[C@@H](O)[C@@H](O[C@H]1[C@H](O)[C@H]2O)O[C@@H]8CO)O[C@@H]7CO)O[C@@H]6CO)O[C@@H]5CO)O[C@@H]4CO)O[C@@H]3CO [β-cyclodextrin]
  stain removing activity (ΔE): least stain removing activity
